{"source": "ChEMBL document CHEMBL3044672", "about": "“N9- and N7-(Chloromethyl Phenymethyl)Chloropurine Derivatives from , '-Dichloroxylenes: Synthesis and Anticancer Activity” (2005)", "type_in_all_cases": "functional", "key": {"SF-295": {"system": "SF-295", "assay": "Cytotoxicity against Homo sapiens (human) SF295 cells after 48 hr by sulforhodamine B assay", "settings": "SF-295, 48 h"}, "KM12": {"system": "KM12", "assay": "Cytotoxicity against Homo sapiens (human) KM12 cells after 48 hr by sulforhodamine B assay", "settings": "KM12, 48 h"}, "T47D": {"system": "T47D", "assay": "Cytotoxicity against Homo sapiens (human) T47D cells after 48 hr by sulforhodamine B assay"}, "IGROV-1": {"system": "IGROV-1", "assay": "Cytotoxicity against Homo sapiens (human) IGROV1 cells after 48 hr by sulforhodamine B assay", "settings": "IGROV-1, 48 h"}, "DU-145": {"system": "DU-145", "assay": "Cytotoxicity against Homo sapiens (human) DU145 cells after 48 hr by sulforhodamine B assay", "settings": "DU-145, 48 h"}, "A549": {"system": "A549", "assay": "Cytotoxicity against Homo sapiens (human) A549 cells after 48 hr by sulforhodamine B assay", "settings": "A549, 48 h"}, "786-0": {"system": "786-0", "assay": "Cytotoxicity against Homo sapiens (human) 786-0 cells after 48 hr by sulforhodamine B assay", "settings": "786-0, 48 h"}, "SK-OV-3": {"system": "SK-OV-3", "assay": "Cytotoxicity against Homo sapiens (human) SKOV3 cells after 48 hr by sulforhodamine B assay", "settings": "SK-OV-3, 48 h"}, "UO-31": {"system": "UO-31", "assay": "Cytotoxicity against Homo sapiens (human) UO31 cells after 48 hr by sulforhodamine B assay", "settings": "UO-31, 48 h"}, "SF-268": {"system": "SF-268", "assay": "Cytotoxicity against Homo sapiens (human) SF268 cells assessed as cell growth at 10^-4 M after 48 hr by […] assay", "settings": "SF-268, 48 h, read-out: Activity"}, "RPMI-8226": {"system": "RPMI-8226", "assay": "Cytotoxicity against Homo sapiens (human) RPMI8226 cells after 48 hr by sulforhodamine B assay", "settings": "RPMI-8226, 48 h"}, "NCI-H322M": {"system": "NCI-H322M", "assay": "Cytotoxicity against Homo sapiens (human) NCI-H322M cells after 48 hr by sulforhodamine B assay"}, "CCRF-CEM": {"system": "CCRF-CEM", "assay": "Cytotoxicity against Homo sapiens (human) CCRF-CEM cells after 48 hr by sulforhodamine B assay"}, "SK-MEL-2": {"system": "SK-MEL-2", "assay": "Cytotoxicity against Homo sapiens (human) SK-MEL-2 cells after 48 hr by sulforhodamine B assay", "settings": "SK-MEL-2, 48 h"}, "SW-620": {"system": "SW-620", "assay": "Cytotoxicity against Homo sapiens (human) SW620 cells after 48 hr by sulforhodamine B assay", "settings": "SW-620, 48 h"}, "SK-MEL-5": {"system": "SK-MEL-5", "assay": "Cytotoxicity against Homo sapiens (human) SK-MEL-5 cells after 48 hr by sulforhodamine B assay", "settings": "SK-MEL-5, 48 h"}, "PC-3": {"system": "PC-3", "assay": "Cytotoxicity against Homo sapiens (human) PC3 cells after 48 hr by sulforhodamine B assay", "settings": "PC-3, 48 h"}, "HOP-62": {"system": "HOP-62", "assay": "Cytotoxicity against Homo sapiens (human) HOP62 cells after 48 hr by sulforhodamine B assay", "settings": "HOP-62, 48 h"}, "UACC-62": {"system": "UACC-62", "assay": "Cytotoxicity against Homo sapiens (human) UACC62 cells after 48 hr by sulforhodamine B assay", "settings": "UACC-62, 48 h"}, "HCC 2998": {"system": "HCC 2998", "assay": "Cytotoxicity against Homo sapiens (human) HCC2998 cells after 48 hr by sulforhodamine B assay", "settings": "HCC 2998, 48 h"}, "ACHN": {"system": "ACHN", "assay": "Cytotoxicity against Homo sapiens (human) ACHN cells after 48 hr by sulforhodamine B assay"}, "OVCAR-4": {"system": "OVCAR-4", "assay": "Cytotoxicity against Homo sapiens (human) OVCAR4 cells after 48 hr by sulforhodamine B assay", "settings": "OVCAR-4, 48 h"}, "SF-539": {"system": "SF-539", "assay": "Cytotoxicity against Homo sapiens (human) SF539 cells after 48 hr by sulforhodamine B assay", "settings": "SF-539, 48 h"}, "HCT-15": {"system": "HCT-15", "assay": "Cytotoxicity against Homo sapiens (human) HCT15 cells after 48 hr by sulforhodamine B assay", "settings": "HCT-15, 48 h"}, "MDA-MB-231": {"system": "MDA-MB-231", "assay": "Cytotoxicity against Homo sapiens (human) MDA-MB-231 cells after 48 hr by sulforhodamine B assay", "settings": "MDA-MB-231, 48 h"}, "LOX IMVI": {"system": "LOX IMVI", "assay": "Cytotoxicity against Homo sapiens (human) LOXIMVI cells after 48 hr by sulforhodamine B assay"}, "RXF 393": {"system": "RXF 393", "assay": "Cytotoxicity against Homo sapiens (human) RXF393 cells after 48 hr by sulforhodamine B assay", "settings": "RXF 393, 48 h"}, "EKVX": {"system": "EKVX", "assay": "Cytotoxicity against Homo sapiens (human) EKVX cells after 48 hr by sulforhodamine B assay"}, "A498": {"system": "A498", "assay": "Cytotoxicity against Homo sapiens (human) A498 cells after 48 hr by sulforhodamine B assay", "settings": "A498, 48 h"}, "OVCAR-3": {"system": "OVCAR-3", "assay": "Cytotoxicity against Homo sapiens (human) OVCAR3 cells after 48 hr by sulforhodamine B assay", "settings": "OVCAR-3, 48 h"}, "MOLT-4": {"system": "MOLT-4", "assay": "Cytotoxicity against Homo sapiens (human) MOLT4 cells after 48 hr by sulforhodamine B assay", "settings": "MOLT-4, 48 h"}, "HCT-116": {"system": "HCT-116", "assay": "Cytotoxicity against Homo sapiens (human) HCT116 cells after 48 hr by sulforhodamine B assay", "settings": "HCT-116, 48 h"}, "[1]": {"settings": "read-out: LC50 (the source's name)"}}, "data": [{"smiles": "Nc1nc(Cl)c2ncn(Cc3ccc(CCl)cc3)c2n1", "values": [{"measurement": "TGI", "setting": "SF-295", "result": 27.5, "unit": "µM"}, {"measurement": "CC50", "setting": "SF-295; [1]", "result": 72.4, "unit": "µM"}, {"measurement": "TGI", "setting": "KM12", "result": 22.9, "unit": "µM"}, {"measurement": "CC50", "setting": "KM12; [1]", "result": 57.5, "unit": "µM"}, {"measurement": "LC50", "setting": "T47D", "result": "> 100", "unit": "µM"}, {"measurement": "TGI", "setting": "T47D", "result": 39.8, "unit": "µM"}, {"measurement": "LC50", "setting": "IGROV-1", "result": 53.7, "unit": "µM"}, {"measurement": "TGI", "setting": "IGROV-1", "result": 22.9, "unit": "µM"}, {"measurement": "LC50", "setting": "DU-145", "result": 43.6, "unit": "µM"}, {"measurement": "TGI", "setting": "DU-145", "result": 19.5, "unit": "µM"}, {"measurement": "TGI", "setting": "A549", "result": 75.9, "unit": "µM"}, {"measurement": "CC50", "setting": "A549; [1]", "result": "> 100", "unit": "µM"}, {"measurement": "LC50", "setting": "786-0", "result": "> 100", "unit": "µM"}, {"measurement": "TGI", "setting": "786-0", "result": 93.3, "unit": "µM"}, {"measurement": "LC50", "setting": "SK-OV-3", "result": 64.5, "unit": "µM"}, {"measurement": "TGI", "setting": "SK-OV-3", "result": 30.9, "unit": "µM"}, {"measurement": "LC50 (concentration causing 50% net cell kill)", "setting": "UO-31", "result": 55, "unit": "µM"}, {"measurement": "TGI", "setting": "UO-31", "result": 25.1, "unit": "µM"}, {"measurement": "growth at 100 µM", "setting": "SF-268", "result": 90, "unit": "%"}, {"measurement": "TGI", "setting": "RPMI-8226", "result": "> 100", "unit": "µM"}, {"measurement": "CC50", "setting": "RPMI-8226; [1]", "result": "> 100", "unit": "µM"}, {"measurement": "TGI", "setting": "NCI-H322M", "result": 42.7, "unit": "µM"}, {"measurement": "CC50", "setting": "NCI-H322M; [1]", "result": 87.1, "unit": "µM"}, {"measurement": "TGI", "setting": "CCRF-CEM", "result": "> 100", "unit": "µM"}, {"measurement": "CC50", "setting": "CCRF-CEM; [1]", "result": "> 100", "unit": "µM"}, {"measurement": "LC50 (concentration killing 50% of cells)", "setting": "SK-MEL-2", "result": 74.1, "unit": "µM"}, {"measurement": "TGI", "setting": "SK-MEL-2", "result": 28.8, "unit": "µM"}, {"measurement": "TGI", "setting": "SW-620", "result": 13.8, "unit": "µM"}, {"measurement": "CC50", "setting": "SW-620; [1]", "result": 87.1, "unit": "µM"}, {"measurement": "LC50", "setting": "SK-MEL-5", "result": 63.1, "unit": "µM"}, {"measurement": "TGI", "setting": "SK-MEL-5", "result": 31, "unit": "µM"}, {"measurement": "LC50 (concentration causing 50% cell kill)", "setting": "PC-3", "result": 70.8, "unit": "µM"}, {"measurement": "TGI", "setting": "PC-3", "result": 25.1, "unit": "µM"}, {"measurement": "TGI", "setting": "HOP-62", "result": 27.5, "unit": "µM"}, {"measurement": "CC50", "setting": "HOP-62; [1]", "result": 91.2, "unit": "µM"}, {"measurement": "LC50 (concentration causing 50% net cell kill)", "setting": "UACC-62", "result": 53.7, "unit": "µM"}, {"measurement": "TGI", "setting": "UACC-62", "result": 8.13, "unit": "µM"}, {"measurement": "TGI", "setting": "HCC 2998", "result": 8.91, "unit": "µM"}, {"measurement": "CC50", "setting": "HCC 2998; [1]", "result": 75.9, "unit": "µM"}, {"measurement": "TGI", "setting": "ACHN", "result": 25.1, "unit": "µM"}, {"measurement": "CC50", "setting": "ACHN; [1]", "result": 64.6, "unit": "µM"}, {"measurement": "LC50 (concentration killing 50% of cells)", "setting": "OVCAR-4", "result": 57.5, "unit": "µM"}, {"measurement": "TGI", "setting": "OVCAR-4", "result": 30.2, "unit": "µM"}, {"measurement": "LC50 (concentration killing 50% of cells)", "setting": "SF-539", "result": 46.8, "unit": "µM"}, {"measurement": "TGI", "setting": "SF-539", "result": 10, "unit": "µM"}, {"measurement": "TGI", "setting": "HCT-15", "result": 19.9, "unit": "µM"}, {"measurement": "CC50", "setting": "HCT-15; [1]", "result": 67.6, "unit": "µM"}, {"measurement": "LC50", "setting": "MDA-MB-231", "result": 91.2, "unit": "µM"}, {"measurement": "TGI", "setting": "MDA-MB-231", "result": 34.7, "unit": "µM"}, {"measurement": "LC50", "setting": "LOX IMVI", "result": "> 100", "unit": "µM"}, {"measurement": "TGI", "setting": "LOX IMVI", "result": 43.6, "unit": "µM"}, {"measurement": "TGI", "setting": "RXF 393", "result": 7.24, "unit": "µM"}, {"measurement": "CC50", "setting": "RXF 393; [1]", "result": 35.5, "unit": "µM"}, {"measurement": "TGI", "setting": "EKVX", "result": 7.24, "unit": "µM"}, {"measurement": "CC50", "setting": "EKVX; [1]", "result": 28.2, "unit": "µM"}, {"measurement": "LC50 (lethal concentration, 50% cell kill)", "setting": "A498", "result": "> 100", "unit": "µM"}, {"measurement": "TGI", "setting": "A498", "result": 85.1, "unit": "µM"}, {"measurement": "LC50", "setting": "OVCAR-3", "result": 22.9, "unit": "µM"}, {"measurement": "TGI", "setting": "OVCAR-3", "result": 5.5, "unit": "µM"}, {"measurement": "TGI", "setting": "MOLT-4", "result": "> 100", "unit": "µM"}, {"measurement": "CC50", "setting": "MOLT-4; [1]", "result": "> 100", "unit": "µM"}, {"measurement": "TGI", "setting": "HCT-116", "result": 15, "unit": "µM"}, {"measurement": "CC50", "setting": "HCT-116; [1]", "result": 56.2, "unit": "µM"}]}]}
